Consider 6 compounds from ChEMBL document CHEMBL4265931, “Identification of dual Sigma1 receptor modulators/acetylcholinesterase inhibitors with antioxidant and neurotrophic properties, as neuroprotective agents” (Eur J Med Chem, 2018).

Each structure is given as a SMILES string. The source made the active and inactive calls. No cut-off for these calls is given here.

Data set [1] is described as follows: Antioxidant activity assessed as DPPH free radical scavenging at 465 uM after 20 mins by UV-Vis spectrophotometric analysis relative to control. The format is functional. (In general: Loss of DPPH colour is used to gauge radical scavenging.)
The test system of data set [2] is SH-SY5Y. Kind of data set: Neuroprotection against H2O2-induced oxidative stress in human SH-SY5Y cells assessed as reduction in ROS generation at 10 uM preincubated for 3 hrs followed by DCFDA addition for 45 mins and subsequent co-treatment with compound and H2O2 for 24 hrs by fluorescence assay relative to control. The class given is functional.
Data set [3] concerns the target T1, Sigma non-opioid intracellular receptor 1 (Cavia porcellus, UniProt Q60492). Also noted: species or system Hartley.
Description: Displacement of [3H]DTG from S1R in P2 fraction of Hartley guinea pig whole brain after 90 mins by liquid scintillation counting method
A short description of data set [4]: in vitro. To be noted: human.
Description: Cytotoxicity against human SH-SY5Y cells assessed as cell viability at 10 uM after 24 hrs by MTS assay relative to control
Data set [5] can be described thus: in vitro. To be noted: human. The source holds these as a separate data set.
Data set [6] can be described thus: in vitro. To be noted: human. The source holds these as a separate data set.
Description: Cytotoxicity against human SH-SY5Y cells assessed as cell viability at 50 uM after 24 hrs by MTS assay relative to control
The nature of data set [7]: in vitro. To be noted: human. The source holds these as a separate data set.
Description: Cytotoxicity against human SH-SY5Y cells assessed as cell viability at 10 uM after 48 hrs by MTS assay relative to control
A short description of data set [8]: in vitro. To be noted: human. The source holds these as a separate data set.
Data set [9] can be described thus: in vitro. Particulars: human. The source holds these as a separate data set.
Description: Cytotoxicity against human SH-SY5Y cells assessed as cell viability at 50 uM after 48 hrs by MTS assay relative to control
Data set [10] has as its target T1, Sigma non-opioid intracellular receptor 1. Kind of data set: Displacement of [3H](+)-pentazocine from S1R in guinea pig brain cortex membranes after 120 mins by scintillation counting assay. The class given is cell membranes. In general terms: Displacement assays read how much labelled ligand stays bound in the presence of the test substance.
The target in data set [11] is T2, Sigma intracellular receptor 2 (Rattus norvegicus, UniProt Q5U3Y7).
T2 sequence (Q5U3Y7 whole entry): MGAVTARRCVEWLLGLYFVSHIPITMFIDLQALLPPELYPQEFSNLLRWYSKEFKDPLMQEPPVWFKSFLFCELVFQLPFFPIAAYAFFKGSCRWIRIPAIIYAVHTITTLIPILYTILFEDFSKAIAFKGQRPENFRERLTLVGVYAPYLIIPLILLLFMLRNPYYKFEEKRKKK
Kind of data set: Displacement of [3H]-DTG from S2R in rat liver membranes after 120 mins by scintillation counting assay. The class given is cell membranes, Membrane.

The nature of data set [12]: Selectivity ratio of Ki for S2R in rat liver membranes to Ki for S1R in guinea pig brain cortex membranes. The class given is cell membranes.
Data set [13] has as its target Acetylcholinesterase (Electrophorus electricus, UniProt O42275). Kind of data set: Inhibition of electric eel AChE using acetylthiocholine iodide as substrate preincubated for 5 mins followed by substrate addition and measured after 2 mins by Ellman's method.
The nature of data set [14]: Displacement of [3H]-ifenprodil from GluN1a/GluN2B (unknown origin) expressed in mouse L(tk-) cell membranes after 120 mins by scintillation counting analysis. Also noted: species or system Homo sapiens.
The test system of data set [15] is SH-SY5Y. Kind of data set: Cytotoxicity against human SH-SY5Y cells assessed as reduction in cell viability after 24 hrs by MTS assay. The class given is cell-based. Particulars: for Activity: human, sh-sy5y; for IC50: Homo sapiens, SH-SY5Y. On the technique in general: Tetrazolium dyes change colour on reduction, which living cells bring about.
Data set [16] deals with SH-SY5Y. Kind of data set: Cytotoxicity against human SH-SY5Y cells assessed as reduction in cell viability after 48 hrs by MTS assay. Particulars: for Activity: human, sh-sy5y; for IC50: Homo sapiens, SH-SY5Y. The format is cell-based.
Data set [17] is described as follows: Neurotrophic activity in Sprague-Dawley rat embryo DRG neuron assessed as increase in neurite length at 2.5 to 5 uM after 24 to 48 hrs relative to control. The format is functional.
Data set [18] can be described thus: Neurotoxicity in Sprague-Dawley rat embryo DRG neuron at 2.5 to 5 uM after 24 to 48 hrs. The format is toxicity.
Data set [19] can be described thus: Neurotoxicity in Sprague-Dawley rat embryo DRG neuron at 10 uM after 24 hrs. The class given is toxicity.
Data set [20] is described as follows: Neurotoxicity in Sprague-Dawley rat embryo DRG neuron at 10 uM after 48 hrs. The format is toxicity.
Data set [21] in a line: Antioxidant activity assessed as DPPH free radical scavenging after 20 mins by UV-Vis spectrophotometric analysis. The class given is functional.
Data set [22] can be described thus: Neurotrophic activity in Sprague-Dawley rat embryo DRG neuron assessed as increase in neurite length at 2.5 uM after 24 hrs relative to control. The format is functional.

Acetylcholinesterase, sequence (O42275 whole entry): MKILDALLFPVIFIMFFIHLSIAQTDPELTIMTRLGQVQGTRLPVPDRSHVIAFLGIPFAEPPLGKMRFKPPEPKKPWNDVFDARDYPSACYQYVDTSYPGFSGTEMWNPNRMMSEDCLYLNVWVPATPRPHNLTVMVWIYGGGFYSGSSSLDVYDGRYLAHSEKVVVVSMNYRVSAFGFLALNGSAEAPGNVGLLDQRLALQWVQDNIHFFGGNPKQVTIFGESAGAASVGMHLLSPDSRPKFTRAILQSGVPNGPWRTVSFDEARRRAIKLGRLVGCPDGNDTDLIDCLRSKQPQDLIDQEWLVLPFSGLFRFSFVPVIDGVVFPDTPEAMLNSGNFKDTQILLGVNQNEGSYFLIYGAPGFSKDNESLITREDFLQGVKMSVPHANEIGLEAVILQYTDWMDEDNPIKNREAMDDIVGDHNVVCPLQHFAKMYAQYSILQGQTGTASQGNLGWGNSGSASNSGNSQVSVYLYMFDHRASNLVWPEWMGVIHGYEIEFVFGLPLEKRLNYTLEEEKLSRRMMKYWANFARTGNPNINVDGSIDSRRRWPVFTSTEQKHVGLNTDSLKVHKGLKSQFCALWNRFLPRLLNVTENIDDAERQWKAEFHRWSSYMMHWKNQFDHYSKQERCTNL
T1 sequence (Q60492 whole entry): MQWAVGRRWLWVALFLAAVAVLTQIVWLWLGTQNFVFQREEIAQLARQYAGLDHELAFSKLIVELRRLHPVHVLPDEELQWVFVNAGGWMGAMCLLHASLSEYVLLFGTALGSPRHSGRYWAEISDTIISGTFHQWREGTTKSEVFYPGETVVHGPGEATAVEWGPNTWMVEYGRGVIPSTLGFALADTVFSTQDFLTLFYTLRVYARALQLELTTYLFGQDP

Consider `COc1cc2c(cc1OC)C(=O)C(CC1CCN(Cc3ccccc3)CC1)C2` (stereo not drawn) [DONEPEZIL], for which the Activity in [1] was 4.4%. The outcome in data set [2] was inactive. Moreover, in data set [3], affinity was put at a Ki of 14.6 nM. For the same compound, in data set [4] (sh-sy5y), the viability (commonly a read-out of living cells in per cent, often relative to untreated cells) at 24 h, 10 µM turned out to be 100%. Moreover, the viability at 24 h, 25 µM in [5] (sh-sy5y) was found to be 99.3%. Also, the viability at 24 h, 50 µM in data set [6] (sh-sy5y) is 94.7%. Moreover, the viability at 48 h, 10 µM in data set [7] (sh-sy5y) amounted to 94.3%. In addition, in [8] (sh-sy5y), the viability at 48 h, 25 µM came to 80.4%. Further, the viability at 48 h, 50 µM in data set [9] (sh-sy5y) stood at 64.4%.

On to `COc1ccc(C(=O)CCN2CCC(Cc3ccccc3)CC2)cc1.Cl`, for which the results for the Ki in data set [10], in data set [11] and in [14] were 11 nM, 2400 nM and 198 nM, respectively. In data set [12], the Ratio Ki stood at 218. In addition, 22000 nM corresponded to half-maximal inhibition in [13] (IC50). Moreover, the values for the Activity in data set [1], in [15] and in [16] were 2.8%, “Dose-dependent effect” and “Dose-dependent effect”, respectively. The result in data set [2] was inactive. In addition, in data set [4] (SH-SY5Y cells), the viability at 24 h, 10 µM is 99.9%. Moreover, the viability at 24 h, 25 µM in data set [5] (SH-SY5Y cells) was 63.9%. For the same compound, the viability at 24 h, 50 µM in data set [6] (SH-SY5Y cells) amounted to 56.5%. The viability at 48 h, 10 µM in data set [7] (SH-SY5Y cells) was found to be 97.4%. For the same compound, the viability at 48 h, 25 µM in data set [8] (SH-SY5Y cells) was 50.2%. In data set [9] (SH-SY5Y cells), the viability at 48 h, 50 µM was determined as 44.7%.

In the case of `Cl.O=C(CCN1CCCCC1)c1ccc(-c2ccccc2)cc1`, the Ki – broadly, a measure of affinity in units of concentration, obtained from inhibition or displacement – was 462 nM in data set [11] and > 1000 nM in [14]. The Ratio Ki in data set [12] was 30.8. The figures for the half-maximal inhibitory concentration (IC50) in [13], in [15] and in data set [16] were 13100 nM, 37000 nM and 22000 nM, respectively. Besides, the Activity in data set [1] is 15.5%; in data set [15], “Dose-dependent effect”; in data set [16], “Dose-dependent effect”; in [2], 18%; in data set [17] it was 20%; in [18] it was “Non-Toxic”. Besides, the Activity entry in [19] was “Toxic”; in [20], “Non-Toxic”. For the same compound, in [4] (SH-SY5Y cells), the viability at 24 h, 10 µM came to 104%. Further, the viability at 24 h, 25 µM in [5] (SH-SY5Y cells) was determined as 95.4%. For the same compound, the viability at 24 h, 50 µM in [6] (SH-SY5Y cells) came out at 64%. Besides, in [7] (SH-SY5Y cells), the viability at 48 h, 10 µM is 95.9%. Further, the viability at 48 h, 25 µM in [8] (SH-SY5Y cells) came to 49.3%. Moreover, the viability at 48 h, 50 µM in data set [9] (SH-SY5Y cells) turned out to be 44.7%.

On to `Cl.O=C(CN1CCC(Cc2ccccc2)CC1)c1ccc2ccccc2c1`, for which the Ki in data set [11] was 802 nM; in data set [14], 139 nM. For the same compound, in [12], the Ratio Ki worked out at 30. Also, the IC50 (as a rule, the point on the concentration scale where inhibition reaches its midpoint) in [13] was found to be 9130 nM; in data set [21], 86800 nM; in data set [15], 52000 nM; in [16] it was 57000 nM. Besides, the Activity was 65.7% in [1]; “Dose-dependent effect” in data set [15]; “Dose-dependent effect” in data set [16]; “<=43%” in data set [2]; 15% in data set [22]; “Non-Toxic” in [18]. Besides, the Activity result in data set [19] is given as “Toxic”; in data set [20] it was “Non-Toxic”. The viability at 24 h, 10 µM in data set [4] (SH-SY5Y cells) came to 107%. In addition, the viability at 24 h, 25 µM in data set [5] (SH-SY5Y cells) is 104%. Moreover, in [6] (SH-SY5Y cells), the viability at 24 h, 50 µM was determined as 81.3%. Further, the viability at 48 h, 10 µM in [7] (SH-SY5Y cells) was determined as 89.5%. The viability at 48 h, 25 µM in [8] (SH-SY5Y cells) came out at 77.6%. The viability at 48 h, 50 µM in data set [9] (SH-SY5Y cells) was found to be 48.4%.

Turning to `COc1ccc(C(=O)CN2CCC(Cc3ccccc3)CC2)cc1.Cl`, the Ki was determined as 27 nM in data set [10], 2000 nM in data set [11] and 16 nM in data set [14]. For the same compound, in data set [12], the Ratio Ki came to 74. Further, in [21], the IC50 was found to be 147000 nM. Besides, the Activity in data set [1] is 65.6%; in data set [15], “Dose-dependent effect”; in [16] it was “Dose-dependent effect”. Besides, the viability at 24 h, 10 µM in data set [4] (SH-SY5Y cells) was determined as 103%. For the same compound, the viability at 24 h, 25 µM in data set [5] (SH-SY5Y cells) amounted to 98.4%. Moreover, in data set [6] (SH-SY5Y cells), the viability at 24 h, 50 µM amounted to 87%. Also, in [7] (SH-SY5Y cells), the viability at 48 h, 10 µM was 85.5%. The viability at 48 h, 25 µM in data set [8] (SH-SY5Y cells) was determined as 69.3%. For the same compound, the viability at 48 h, 50 µM in data set [9] (SH-SY5Y cells) stood at 52.5%.

For the compound `COc1cc(/C=C/C(=O)CC(=O)/C=C/c2ccc(O)c(OC)c2)ccc1O` [CURCUMIN], the IC50 in data set [21] stood at 13500 nM. For the same compound, the Activity in data set [1] worked out at 71.3%; in data set [2] it was 0%. In addition, in data set [4] (SH-SY5Y cells), the viability at 24 h, 10 µM was 100%. Moreover, the viability at 24 h, 25 µM in data set [5] (SH-SY5Y cells) came to 76.5%. Also, in [6] (SH-SY5Y cells), the viability at 24 h, 50 µM was 71.5%. In data set [7] (SH-SY5Y cells), the viability at 48 h, 10 µM turned out to be 100%. In data set [8] (SH-SY5Y cells), the viability at 48 h, 25 µM stood at 58.7%. Moreover, in data set [9] (SH-SY5Y cells), the viability at 48 h, 50 µM was 59%.
